# Reference: patent US20260191835A1, “COMBINATIONS COMPRISING A MENIN-MLL INHIBITOR AND AT LEAST ONE OTHER THERAPEUTIC AGENT” (JANSSEN PHARMACEUTICA NV, priority 2022, published 2026)
# Tested on: MOLM-13 cells
# Experiment: In vitro proliferation (Cell Titer Glo, 6 days) of Compound 51 in combination with gilteritinib, midostaurin, idarubicin or decitabine, MOLM-13
# Assay type: cell-based, human
# Parameters: key to maxR call (synergy/antagonism), combination with Gilteritinib on MOLM-13 cell proliferation / Synergy/antagonism call (maxR test), MOLM-13 Cell Proliferation: synergy is indicated by “**”; antagonism is indicated by “*”; no asterisk: absence of any asterisk indicates an additive effect
# Experimental: 3) In Vitro Proliferation—Menin-MLL Inhibitor in Combination with FLT3 Inhibitor (Gilteritinib or Midostaurin), DNA Intercalating Agent (Idarubicin) or Hypomethylating Agent (Decitabine)
# The effect of Compound 51 in combination with gilteritinib, midostaurin, idarubicin or decitabine was determined in proliferation assays.
# AML cell lines MOLM-13, OCI-AML3 and MV4-11 were purchased from DSMZ. MOLM-13 were grown in RPMI medium supplemented with 10% Fetal Bovine Serum (FBS) and 1% penicillin/streptomycin. MV4-11 cells were grown in IMDM medium supplemented with 10% FBS and 1% penicillin/streptomycin. OCI-AML3 cells were cultured in 80-90% alpha-MEM (with or without ribo- and deoxyribonucleosides)+10-20% FBS. All cell lines were cultured at 37° C. in 5% CO2 atmosphere.
# AML cell lines (10-20×10^3 cells/well) were seeded in 96-well plates and grown for 6 days in serum (10%)-containing medium in the presence or absence of inhibitors at the indicated concentrations. Proliferation was analyzed by means of a Cell Titer Glo assay using the […] (Promega, Madison, WI, USA), according to the manufacturer's instructions. Data are mean with standard deviation from two to four independent experiments in technical triplicates.
# R-based Biochemically Intuitive Generalized Loewe (BIGL) model implemented with a highest single agent (HSA) null model. Specifically, the BIGL methodology was applied to calculate drug-drug interactions (Van der Borght, K., Tourny, A., Bagdziunas, R. et al. BIGL: Biochemically Intuitive Generalized Loewe null model for prediction of the expected combined effect compatible with partial agonism and antagonism. Sci Rep 7, 17935 (2017); Thas, O., Tourny, A., Verbist, B., Hawinkel, S., Nazarov, M., Mutambanengwe, K., & Bijnens, L. Statistical detection of synergy: New methods and a comparative study. Pharmaceutical Statistics (2021)).
# Synergy matrix results of the BIGL analysis of the cell line data with HSA as mean model calculated on the basis of the cellular metabolic activity using Cell Titer-Glo assay. Bootstrap confidence intervals are indicated. Effect sizes and their confidence intervals are shown. […] No significant average effect if zero is included in the interval.
# [1] = Compound 51 0.01 μm, Gilteritinib 0.01 μM
# [2] = Compound 51 0.05 μm + Decitabine 0.015 μM
# [3] = Compound 51 0.05 μm + Decitabine 0.15 μM
# [4] = Compound 51 0.05 μm + Idarubicin 0.001 μM
# [5] = Compound 51 0.05 μm + Midostaurin 0.006 μM
smiles,measurement,setting,value
CC(=O)N1CCC(CN2CC[C@@H](Cc3cn(-c4ccc(F)cc4C(=O)N(C)C(C)C)c4cncc(C)c34)C2)CC1 [Compound 51],"Effect size (BIGL, HSA null model), MOLM-13 Cell Proliferation",Compound 51 0.0001 μm + Idarubicin 0.0005 μM,−0.05
same,"Effect size (BIGL, HSA null model), MOLM-13 Cell Proliferation",Compound 51 0.0001 μm + Idarubicin 0.001 μM,−0.02
same,"Effect size (BIGL, HSA null model), MOLM-13 Cell Proliferation",Compound 51 0.0001 μm + Idarubicin 0.0025 μM,0.07
same,"Effect size (BIGL, HSA null model), MOLM-13 Cell Proliferation",Compound 51 0.0001 μm + Idarubicin 0.005 μM,−0.1
same,"Effect size (BIGL, HSA null model), MOLM-13 Cell Proliferation",Compound 51 0.0001 μm + Idarubicin 0.05 μM,0.03
same,"Effect size (BIGL, HSA null model), MOLM-13 Cell Proliferation",Compound 51 0.0001 μm + Idarubicin 0.5 μM,0.02
same,"Effect size (BIGL, HSA null model), MOLM-13 Cell Proliferation",Compound 51 0.0001 μm + Midostaurin 0.0012 μM,−0.07
same,"Effect size (BIGL, HSA null model), MOLM-13 Cell Proliferation",Compound 51 0.0001 μm + Midostaurin 0.006 μM,−0.02
same,"Effect size (BIGL, HSA null model), MOLM-13 Cell Proliferation",Compound 51 0.0001 μm + Midostaurin 0.025 μM,0.05
same,"Effect size (BIGL, HSA null model), MOLM-13 Cell Proliferation",Compound 51 0.0001 μm + Midostaurin 0.05 μM,−0.06
same,"Effect size (BIGL, HSA null model), MOLM-13 Cell Proliferation",Compound 51 0.0001 μm + Midostaurin 0.1 μM,−0.04
same,"Effect size (BIGL, HSA null model), MOLM-13 Cell Proliferation",Compound 51 0.0001 μm + Midostaurin 0.5 μM,−0.02
same,"Effect size (BIGL, HSA null model), MOLM-13 Cell Proliferation",Compound 51 0.001 μm + Decitabine 0.0015 μM,−0.03
same,"Effect size (BIGL, HSA null model), MOLM-13 Cell Proliferation",Compound 51 0.001 μm + Decitabine 0.015 μM,−0.07
same,"Effect size (BIGL, HSA null model), MOLM-13 Cell Proliferation",Compound 51 0.001 μm + Decitabine 0.15 μM,−0.03
same,"Effect size (BIGL, HSA null model), MOLM-13 Cell Proliferation",Compound 51 0.001 μm + Decitabine 1.5 μM,−0.03
same,"Effect size (BIGL, HSA null model), MOLM-13 Cell Proliferation",Compound 51 0.001 μm + Decitabine 3 μM,−0.02
same,"Effect size (BIGL, HSA null model), MOLM-13 Cell Proliferation",Compound 51 0.001 μm + Idarubicin 0.0005 μM,−0.03
same,"Effect size (BIGL, HSA null model), MOLM-13 Cell Proliferation",Compound 51 0.001 μm + Idarubicin 0.001 μM,−0.07
same,"Effect size (BIGL, HSA null model), MOLM-13 Cell Proliferation",Compound 51 0.001 μm + Idarubicin 0.0025 μM,0.04
same,"Effect size (BIGL, HSA null model), MOLM-13 Cell Proliferation",Compound 51 0.001 μm + Idarubicin 0.005 μM,−0.1
same,"Effect size (BIGL, HSA null model), MOLM-13 Cell Proliferation",Compound 51 0.001 μm + Idarubicin 0.05 μM,0.02
same,"Effect size (BIGL, HSA null model), MOLM-13 Cell Proliferation",Compound 51 0.001 μm + Idarubicin 0.5 μM,0.02
same,"Effect size (BIGL, HSA null model), MOLM-13 Cell Proliferation",Compound 51 0.001 μm + Midostaurin 0.0012 μM,−0.03
same,"Effect size (BIGL, HSA null model), MOLM-13 Cell Proliferation",Compound 51 0.001 μm + Midostaurin 0.006 μM,−0.02
same,"Effect size (BIGL, HSA null model), MOLM-13 Cell Proliferation",Compound 51 0.001 μm + Midostaurin 0.025 μM,0.07
same,"Effect size (BIGL, HSA null model), MOLM-13 Cell Proliferation",Compound 51 0.001 μm + Midostaurin 0.05 μM,−0.06
same,"Effect size (BIGL, HSA null model), MOLM-13 Cell Proliferation",Compound 51 0.001 μm + Midostaurin 0.1 μM,−0.04
same,"Effect size (BIGL, HSA null model), MOLM-13 Cell Proliferation",Compound 51 0.001 μm + Midostaurin 0.5 μM,−0.02
same,"Effect size (BIGL, HSA null model), combination with Gilteritinib on MOLM-13 cell proliferation","Compound 51 0.001 μm, Gilteritinib 0.0005 μM",−0.01
same,"Effect size (BIGL, HSA null model), combination with Gilteritinib on MOLM-13 cell proliferation","Compound 51 0.001 μm, Gilteritinib 0.005 μM",−0.06
same,"Effect size (BIGL, HSA null model), combination with Gilteritinib on MOLM-13 cell proliferation","Compound 51 0.001 μm, Gilteritinib 0.01 μM",−0.1
same,"Effect size (BIGL, HSA null model), combination with Gilteritinib on MOLM-13 cell proliferation","Compound 51 0.001 μm, Gilteritinib 0.05 μM",−0.02
same,"Effect size (BIGL, HSA null model), combination with Gilteritinib on MOLM-13 cell proliferation","Compound 51 0.001 μm, Gilteritinib 0.1 μM",0.02
same,"Effect size (BIGL, HSA null model), combination with Gilteritinib on MOLM-13 cell proliferation","Compound 51 0.001 μm, Gilteritinib 1 μM",−0.01
same,"Effect size (BIGL, HSA null model), MOLM-13 Cell Proliferation",Compound 51 0.01 μm + Decitabine 0.0015 μM,0
same,"Effect size (BIGL, HSA null model), MOLM-13 Cell Proliferation",Compound 51 0.01 μm + Decitabine 0.015 μM,−0.09
same,"Effect size (BIGL, HSA null model), MOLM-13 Cell Proliferation",Compound 51 0.01 μm + Decitabine 0.15 μM,−0.16
same,"Effect size (BIGL, HSA null model), MOLM-13 Cell Proliferation",Compound 51 0.01 μm + Decitabine 1.5 μM,−0.05
same,"Effect size (BIGL, HSA null model), MOLM-13 Cell Proliferation",Compound 51 0.01 μm + Decitabine 3 μM,−0.02
same,"Effect size (BIGL, HSA null model), MOLM-13 Cell Proliferation",Compound 51 0.01 μm + Idarubicin 0.0005 μM,−0.35
same,"Effect size (BIGL, HSA null model), MOLM-13 Cell Proliferation",Compound 51 0.01 μm + Idarubicin 0.001 μM,−0.73
same,"Effect size (BIGL, HSA null model), MOLM-13 Cell Proliferation",Compound 51 0.01 μm + Idarubicin 0.0025 μM,−0.26
same,"Effect size (BIGL, HSA null model), MOLM-13 Cell Proliferation",Compound 51 0.01 μm + Idarubicin 0.005 μM,−0.11
same,"Effect size (BIGL, HSA null model), MOLM-13 Cell Proliferation",Compound 51 0.01 μm + Idarubicin 0.05 μM,0.02
same,"Effect size (BIGL, HSA null model), MOLM-13 Cell Proliferation",Compound 51 0.01 μm + Idarubicin 0.5 μM,0.02
same,"Effect size (BIGL, HSA null model), MOLM-13 Cell Proliferation",Compound 51 0.01 μm + Midostaurin 0.0012 μM,0.01
same,"Effect size (BIGL, HSA null model), MOLM-13 Cell Proliferation",Compound 51 0.01 μm + Midostaurin 0.006 μM,−0.06
same,"Effect size (BIGL, HSA null model), MOLM-13 Cell Proliferation",Compound 51 0.01 μm + Midostaurin 0.025 μM,0.1
same,"Effect size (BIGL, HSA null model), MOLM-13 Cell Proliferation",Compound 51 0.01 μm + Midostaurin 0.05 μM,−0.06
same,"Effect size (BIGL, HSA null model), MOLM-13 Cell Proliferation",Compound 51 0.01 μm + Midostaurin 0.1 μM,−0.04
same,"Effect size (BIGL, HSA null model), MOLM-13 Cell Proliferation",Compound 51 0.01 μm + Midostaurin 0.5 μM,−0.02
same,"Effect size (BIGL, HSA null model), combination with Gilteritinib on MOLM-13 cell proliferation","Compound 51 0.01 μm, Gilteritinib 0.0005 μM",0.01
same,"Effect size (BIGL, HSA null model), combination with Gilteritinib on MOLM-13 cell proliferation","Compound 51 0.01 μm, Gilteritinib 0.005 μM",−0.08
same,"Effect size (BIGL, HSA null model), combination with Gilteritinib on MOLM-13 cell proliferation",[1],−0.25
same,"maxR call (synergy/antagonism), combination with Gilteritinib on MOLM-13 cell proliferation",[1],**
same,"Effect size (BIGL, HSA null model), combination with Gilteritinib on MOLM-13 cell proliferation","Compound 51 0.01 μm, Gilteritinib 0.05 μM",−0.09
same,"Effect size (BIGL, HSA null model), combination with Gilteritinib on MOLM-13 cell proliferation","Compound 51 0.01 μm, Gilteritinib 0.1 μM",0.1
same,"Effect size (BIGL, HSA null model), combination with Gilteritinib on MOLM-13 cell proliferation","Compound 51 0.01 μm, Gilteritinib 1 μM",−0.01
same,"Effect size (BIGL, HSA null model), MOLM-13 Cell Proliferation",Compound 51 0.05 μm + Decitabine 0.0015 μM,−0.03
same,"Effect size (BIGL, HSA null model), MOLM-13 Cell Proliferation",[2],−0.13
same,"Synergy/antagonism call (maxR test), MOLM-13 Cell Proliferation",[2],**
same,"Effect size (BIGL, HSA null model), MOLM-13 Cell Proliferation",[3],−0.32
same,"Synergy/antagonism call (maxR test), MOLM-13 Cell Proliferation",[3],**
same,"Effect size (BIGL, HSA null model), MOLM-13 Cell Proliferation",Compound 51 0.05 μm + Decitabine 1.5 μM,−0.05
same,"Effect size (BIGL, HSA null model), MOLM-13 Cell Proliferation",Compound 51 0.05 μm + Decitabine 3 μM,−0.03
same,"Effect size (BIGL, HSA null model), MOLM-13 Cell Proliferation",Compound 51 0.05 μm + Idarubicin 0.0005 μM,−0.1
same,"Effect size (BIGL, HSA null model), MOLM-13 Cell Proliferation",[4],−0.41
same,"Synergy/antagonism call (maxR test), MOLM-13 Cell Proliferation",[4],**
same,"Effect size (BIGL, HSA null model), MOLM-13 Cell Proliferation",Compound 51 0.05 μm + Idarubicin 0.0025 μM,−0.23
same,"Effect size (BIGL, HSA null model), MOLM-13 Cell Proliferation",Compound 51 0.05 μm + Idarubicin 0.005 μM,−0.11
same,"Effect size (BIGL, HSA null model), MOLM-13 Cell Proliferation",Compound 51 0.05 μm + Idarubicin 0.05 μM,0.02
same,"Effect size (BIGL, HSA null model), MOLM-13 Cell Proliferation",Compound 51 0.05 μm + Idarubicin 0.5 μM,0.02
same,"Effect size (BIGL, HSA null model), MOLM-13 Cell Proliferation",Compound 51 0.05 μm + Midostaurin 0.0012 μM,−0.03
same,"Effect size (BIGL, HSA null model), MOLM-13 Cell Proliferation",[5],−0.21
same,"Synergy/antagonism call (maxR test), MOLM-13 Cell Proliferation",[5],**
same,"Effect size (BIGL, HSA null model), MOLM-13 Cell Proliferation",Compound 51 0.05 μm + Midostaurin 0.025 μM,−0.14
same,"Effect size (BIGL, HSA null model), MOLM-13 Cell Proliferation",Compound 51 0.05 μm + Midostaurin 0.05 μM,0.08
same,"Effect size (BIGL, HSA null model), MOLM-13 Cell Proliferation",Compound 51 0.05 μm + Midostaurin 0.1 μM,−0.04
same,"Effect size (BIGL, HSA null model), MOLM-13 Cell Proliferation",Compound 51 0.05 μm + Midostaurin 0.5 μM,−0.02
same,"Effect size (BIGL, HSA null model), combination with Gilteritinib on MOLM-13 cell proliferation","Compound 51 0.05 μm, Gilteritinib 0.0005 μM",−0.03
